SMILES strings stand for the structures. Where only a bound is given, the exact number is not on record here.

The target in this experiment is T1, Dihydrofolate reductase (Bacillus cereus (strain ATCC 14579 / DSM 31 / CCUG 7414 / JCM 2152 / NBRC 15305 / NCIMB 9373 / NCTC 2599 / NRRL B-3711), UniProt Q81E04).
T1 sequence (Q81E04 whole entry): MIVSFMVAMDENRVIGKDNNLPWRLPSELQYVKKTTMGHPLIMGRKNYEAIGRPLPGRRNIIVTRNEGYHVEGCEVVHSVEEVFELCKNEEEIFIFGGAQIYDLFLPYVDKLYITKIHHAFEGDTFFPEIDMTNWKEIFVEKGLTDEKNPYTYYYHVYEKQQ
As to the kind of experiment: In Vitro Inhibition Assay. As to conditions: pH 7; 25 °C. As for the experimental part: Enzyme activity assays were performed by monitoring the rate of enzyme-dependent NADPH consumption at an absorbance of 340 nm over a period of several minutes. After an incubation period of 5 min in the presence or absence of the inhibitor, the reaction was initiated with the addition of dihydrofolate. The reactions were performed a minimum of four times to determine the average rate and 50% inhibitory concentration values.

Usually IC50 stands for the concentration at which inhibition is half-maximal. Higher therefore signals weaker potency in that assay. For the compound `Nc1nc(N)c2c(ccc3c4ccccc4ccc32)n1` [4,6-diazatetracyclo[8.8.0.0^{2,7}.0^{11,16}]octadeca-1(10),2,4,6,8,11(16),12,14,17-nonaene-3,5-diamine], the 50% inhibitory concentration (IC50) is more than 1000 µM.
The figure for `COc1ccc(OCCCC(=O)O)cc1Cc1cnc2nc(N)nc(N)c2c1C` [4-[3-({2,4-diamino-5-methylpyrido[2,3-d]pyrimidin-6-yl}methyl)-4-methoxyphenoxy]butanoic acid] is 0.6 µM; for `COc1ccc(I)cc1Cc1cnc(N)nc1N` [5-[(5-iodo-2-methoxyphenyl)methyl]pyrimidine-2,4-diamine] it is 37.3 µM.
The figure for `CCOC(=O)CCCCOc1ccc(OC)c(Cc2cnc3nc(N)nc(N)c3c2C)c1` [ethyl 5-[3-({2,4-diamino-5-methylpyrido[2,3-d]pyrimidin-6-yl}methyl)-4-methoxyphenoxy]pentanoate] is 0.35 µM; for `COc1ccc(OCCCCC(=O)O)cc1Cc1cnc2nc(N)nc(N)c2c1C` [2,4-diamino-5-deazapteridine, 5] it is 1.67 µM; for `COc1ccc(OCCCCCC(=O)O)cc1Cc1cnc2nc(N)nc(N)c2c1C` [2,4-diamino-5-deazapteridine, 6] it is 0.51 µM.
Compound `COc1ccc(CCCCCC(=O)O)cc1Cc1cnc(N)nc1N` displayed an IC50 of 150 µM.
The figure for `Nc1nc(N)c2nc(CN3c4ccccc4C=Cc4ccccc43)cnc2n1` [6-{2-azatricyclo[9.4.0.0^{3,8}]pentadeca-1(11),3(8),4,6,9,12,14-heptaen-2-ylmethyl}pteridine-2,4-diamine] is 16.7 µM; for `Nc1nc(N)c2nc(CNc3ccc4c(Cl)cc(Cl)cc4c3)cnc2n1` [6-{[(5,7-dichloronaphthalen-2-yl)amino]methyl}pteridine-2,4-diamine] it is 7.58 µM.
The figure for `COc1ccc(C#CCCCCC(=O)O)cc1Cc1cnc(N)nc1N` is 69.3 µM; for `CCOC(=O)CCCCCOc1ccc(OC)c(Cc2cnc3nc(N)nc(N)c3c2C)c1` [ethyl 6-[3-({2,4-diamino-5-methylpyrido[2,3-d]pyrimidin-6-yl}methyl)-4-methoxyphenoxy]hexanoate] it is 1.85 µM; for `COc1cc(NCc2ccc3nc(N)nc(N)c3c2)c(Br)c(OC)c1OC` [6-{[(2-bromo-3,4,5-trimethoxyphenyl)amino]methyl}quinazoline-2,4-diamine] it is 1.1 µM.
In the case of `COc1cc(CCc2c[nH]c3nc(N)nc(N)c23)cc(OC)c1OC` [5-[2-(3,4,5-trimethoxyphenyl)ethyl]-7H-pyrrolo[2,3-d]pyrimidine-2,4-diamine], the IC50 stood at 252 µM.
The figure for `CN(Cc1cnc2nc(N)nc(N)c2n1)c1ccc2c(Cl)cc(Cl)cc2c1` [6-{[(5,7-dichloronaphthalen-2-yl)(methyl)amino]methyl}pteridine-2,4-diamine] is 17.6 µM; for `COc1ccc(C#CCCCC(=O)O)cc1Cc1cnc2nc(N)nc(N)c2c1C` [6-[3-({2,4-diamino-5-methylpyrido[2,3-d]pyrimidin-6-yl}methyl)-4-methoxyphenyl]hex-5-ynoic acid] it is 1.9 µM; for `COc1ccc(C#CCCCCC(=O)O)cc1Cc1cnc2nc(N)nc(N)c2c1C` [2,4-diamino-5-deazapteridine, 2] it is 0.27 µM.
The figure for `CCOC(=O)CCCOc1ccc(OC)c(Cc2cnc3nc(N)nc(N)c3c2C)c1` [2,4-diamino-5-deazapteridine, 7] is 0.88 µM; for `CN(Cc1cnc2nc(N)nc(N)c2n1)c1ccc2cc(Cl)ccc2c1` [6-{[(6-chloronaphthalen-2-yl)(methyl)amino]methyl}pteridine-2,4-diamine] it is 2.26 µM.
The figure for `Nc1nc(N)c2nc(CNc3ccc4cc(Cl)ccc4c3)cnc2n1` [6-{[(6-chloronaphthalen-2-yl)amino]methyl}pteridine-2,4-diamine] is 6.32 µM.
Regarding `Cc1nc2nc(N)nc(N)c2nc1CN(C)c1ccc2c(Cl)cc(Cl)cc2c1` [6-{[(5,7-dichloronaphthalen-2-yl)(methyl)amino]methyl}-7-methylpteridine-2,4-diamine], the IC50 is more than 1000 µM.
The figure for `Nc1nc(N)c2nc(CNc3ccc4cc(Cl)c(Cl)cc4c3)cnc2n1` [6-{[(6,7-dichloronaphthalen-2-yl)amino]methyl}pteridine-2,4-diamine] is 4.82 µM.

For the origin of these results see BindingDB's records for doi:10.1128/AAC.00386-06 (University of Connecticut At Storrs, 2006).
